We go through 17 molecules from patent US4018895A, “Aryloxyphenylpropylamines in treating depression” (Eli Lilly and Company, priority 1975, dated 1977).

Like-named read-outs stand apart in the source and are kept apart here. Some results are limits rather than exact numbers.

For assay [1], the system named is norepinephrine uptake by synaptosomes from rat brain. Kind of assay: In vitro blockade of norepinephrine uptake by synaptosomes from rat brain. Type of assay: biochemical. To be noted: Table 1, scaffold drawing 3; norepinephrine 0.48 μM. The text has this: (§1) This blockade is shown both in vitro with radioactive labelled compounds to determine the amount of monoamine uptake by synaptosomes from rat brain, and in vivo by a variety of methods. Among the physiologically active monoamines whose uptake is blocked by the compounds of this invention are included serotonin, norepinephrine and dopamine (3,4-dihydroxyphenylethylamine). […] Tables 1 and 2 which follow set forth the results of some of the in vitro determinations of the blockage of monoamine uptake by the compounds of this invention. In the tables, column 1 gives the R substituent on the 3-phenylpropylamine and columns 2-4, the concentration in micrograms per ml. that blocks the uptake of a particular amine by 50 percent for the amines--norephinephrine, serotonin, and dopamine. At the head of each column is given the concentration of the particular monoamine used in the experiment.

Assay [2] deals with dopamine uptake by synaptosomes from rat brain. Kind of assay: In vitro blockade of dopamine uptake by synaptosomes from rat brain. Format: biochemical. To be noted: Table 1, scaffold drawing 3; dopamine 0.2 μM.
Text: as §1

Assay [3] deals with serotonin uptake by synaptosomes from rat brain. Kind of assay: In vitro blockade of serotonin uptake by synaptosomes from rat brain. Type of assay: biochemical. As to conditions: Table 1, scaffold drawing 3; serotonin 0.1 μM.
Text: as §1

Assay [4] has as its system hypothermia induced by the injection of reserpine. The experiment in a line: Reserpine hypothermia reversal test. Type of assay: in vivo, mice. As to conditions: for Activity in reversal of reserpine hypothermia: in words; for inhibition in vivo at 3 mg/kg / inhibition in vivo at 10 mg/kg / inhibition in vivo at 1 mg/kg / inhibition in vivo at 0.3 mg/kg: Mus musculus, ip, 1 h, Post-60 min., mice, read-out: Percent Antagonism Reserpine; for inhibition in vivo at 3 mg/kg: 3 mg./kg. intraperitoneally; for inhibition in vivo at 10 mg/kg: 10 mg./kg. intraperitoneally; for inhibition in vivo at 1 mg/kg: 1 mg./kg. intraperitoneally; for inhibition in vivo at 0.3 mg/kg: .3 mg./kg. intraperitoneally. On the procedure:
(§2) The apomorphine hypothermia antagonism test is carried out as follows: mice are injected with a dose of apomorphine known to reduce body temperature approximately 4° C. The compound under test is injected 1/2 hour before the injection of the apomorphine and the temperatures measured 1/2 hour after injection. The degree of antagonism is expressed as a percent reduction (as compared with controls) of the temperature decrease produced by the injection of the apomorphine. The reserpine hypothermia reversal test is carried out as follows: groups of mice are injected with reserpine and 16.5 hours later are injected intraperitoneally with graded doses of the drug, a different dose level being given to each group of mice. Temperatures are measured at 1 hour after injection of the drug under test and again the effectiveness of the drug is expressed as a percentage decrease in the hypothermia induced by the injection of reserpine as compared with the control group. In the tablets which follow, Table 4 gives the results in the apomorphine antagonism and reserpine reversal hypothermia tests for the secondary amines of this invention. In the table, the first column gives the substituent attached to the oxygen atom at the 3 position of the propylamine chain; columns 2 to 4 the percent antagonism against apomorphine hypothermia at dose levels of 0.3, 1 and 3 mg./kg. and columns 5-7 the percent reversal of reserpine hypothermia at the same dose levels.

The test system of assay [5] is hypothermia induced by the injection of apomorphine. Kind of assay: Apomorphine hypothermia antagonism test. Type of assay: in vivo, mice. To be noted: for Activity in antagonism of apomorphine hypothermia: in words. On the procedure:
as §2, with “The compound under test is injected 1/2 hour before the injection of the apomorphine and the temperatures measured 1/2 hour after injection.” left out

Setting [6] is: Mus musculus, Table 5, dimethylamino compounds, Pre-30 min., mice, read-out: Percent Antagonism Apomorphine.
Setting [7] is: Table 5, dimethylamino compounds.
The mark [8] stands for this setting: Mus musculus, Table 4, secondary amines, Pre-30 min., mice, read-out: Percent Antagonism Apomorphine.

Take `Cc1cc(F)ccc1OC(CCN(C)C)c1ccccc1.O=C(O)C(=O)O` (centres unmarked) [4-fluoro-o-tolyl, N,N-dimethyl 3-(p-fluoro-o-tolyloxy)-3-phenylpropylamine oxalate]: in assay [1], the “Concentration that blocks 50% of amine uptake, Norepinephrine” value turned out to be 2.5 mcq./ml. The “Concentration that blocks 50% of amine uptake, Dopamine” value in assay [2] came to 40 mcq./ml. Further, the “Concentration that blocks 50% of amine uptake, Serotonin” value in assay [3] is “.6 mcq./ml”.

For the molecule `CN(C)CCCN1c2ccccc2CCc2ccccc21` [imipramine, reference compound], the “Activity in reversal of reserpine hypothermia” value in assay [4] is listed as “active”. Further, in assay [5] (10 mg./kg. dose, measured 60 minutes after injection of the apomorphine), the “Reduction of apomorphine hypothermia” value amounted to 100%. For the same molecule, the “Activity in antagonism of apomorphine hypothermia” value in assay [5] is listed as “active”.

As for `CN(C)CCC(Oc1cccc(Cl)c1)c1ccccc1` (centres unmarked) [m-chlorophenyl], in assay [5] (setting [6]), the inhibition in vivo at 1 mg/kg was 0%, the inhibition in vivo at 3 mg/kg came to 13% and the inhibition in vivo at 10 mg/kg worked out at 66%.

Consider `COc1cccc(OC(CCN(C)C)c2ccccc2)c1.O=C(O)C(=O)O` (centres unmarked) [m-methoxyphenyl, N,N-dimethyl 3-phenyl-3-(m-methoxyphenoxy)propylamine oxalate], for which the “Concentration that blocks 50% of amine uptake, Norepinephrine” value in assay [1] is reported as “.2 mcq./ml”. Besides, the “Concentration that blocks 50% of amine uptake, Dopamine” value in assay [2] is reported as “.5 mcq./ml”. The “Concentration that blocks 50% of amine uptake, Serotonin” value in assay [3] is on record as “.08 mcq./ml”.

As for `Cc1cccc(OC(CCN(C)C)c2ccccc2)c1.O=C(O)C(=O)O` (centres unmarked) [m-tolyl, N,N-dimethyl 3-phenyl-3-(m-tolyloxy)propylamine oxalate], the “Concentration that blocks 50% of amine uptake, Norepinephrine” value in assay [1] amounted to 12 mcq./ml. In addition, the “Concentration that blocks 50% of amine uptake, Dopamine” value in assay [2] is reported as > 0 mcq./ml. The “Concentration that blocks 50% of amine uptake, Serotonin” value in assay [3] is reported as “.7 mcq./ml”.

With `CN(C)CCC(Oc1cccc(C(F)(F)F)c1)c1ccccc1.O=C(O)C(=O)O` (centres unmarked) [m-trifluoromethylphenyl, N,N-dimethyl 3-phenyl-3-(m-trifluoromethylphenoxy) propylamine oxalate], the “Concentration that blocks 50% of amine uptake, Norepinephrine” value in assay [1] is 8 mcq./ml. Besides, the “Concentration that blocks 50% of amine uptake, Dopamine” value in assay [2] was > 100 mcq./ml. For the same molecule, the “Concentration that blocks 50% of amine uptake, Serotonin” value in assay [3] is recorded as “.18 mcq./ml”.

For `CNCCC=C1c2ccccc2CCc2ccccc21` [nortriptyline, reference compound], the “Activity in reversal of reserpine hypothermia” value in assay [4] was “active”. Besides, in assay [5], the “Activity in antagonism of apomorphine hypothermia” value was “active”.

For the molecule `COc1ccccc1OC(CCN(C)C)c1ccccc1` (centres unmarked) [o-anisyl], in assay [5] (setting [6]), the inhibition in vivo at 1 mg/kg was found to be 11%, the inhibition in vivo at 3 mg/kg is 30% and the inhibition in vivo at 10 mg/kg came to 61%.

As for `CN(C)CCC(Oc1ccccc1Br)c1ccccc1.O=C(O)C(=O)O` (centres unmarked) [o-bromophenyl, N,N-dimethyl 3-(o-bromophenoxy)-3-phenylpropylamine oxalate], in assay [2], the “Concentration that blocks 50% of amine uptake, Dopamine” value amounted to 5 mcq./ml. In assay [4] (setting [7]), the inhibition in vivo at 3 mg/kg was 18% and the inhibition in vivo at 10 mg/kg came out at 30%. Also, in assay [5] (setting [6]), the inhibition in vivo at 1 mg/kg was found to be 19%, the inhibition in vivo at 3 mg/kg amounted to 40% and the inhibition in vivo at 10 mg/kg was found to be 47%. In addition, the “Concentration that blocks 50% of amine uptake, Serotonin” value in assay [3] is “.1 mcq./ml”.

For `CN(C)CCC(Oc1ccccc1F)c1ccccc1` (centres unmarked) [o-fluorophenyl], in assay [5] (setting [6]), the inhibition in vivo at 1 mg/kg was -10%, the inhibition in vivo at 3 mg/kg worked out at 11% and the inhibition in vivo at 10 mg/kg stood at 31%.

As to `CN(C)CCC(Oc1ccccc1C(C)(C)C)c1ccccc1.O=C(O)C(=O)O` (centres unmarked) [o-t-butylphenyl, N,N-dimethyl 3-phenyl-3-(o-t-butylphenoxy)propylamine oxalate], the “Concentration that blocks 50% of amine uptake, Norepinephrine” value in assay [1] is 1.5 mcq./ml. Further, in assay [2], the “Concentration that blocks 50% of amine uptake, Dopamine” value is given as > 100 mcq./ml. Besides, the “Concentration that blocks 50% of amine uptake, Serotonin” value in assay [3] is recorded as 40 mcq./ml.

`Cc1ccccc1OC(CCN(C)C)c1ccccc1` (centres unmarked) [o-tolyl]: in assay [5] (setting [6]), the inhibition in vivo at 3 mg/kg was 11% and the inhibition in vivo at 10 mg/kg was 94%.

Turning to `COc1ccc(OC(CCN(C)C)c2ccccc2)cc1` (centres unmarked) [p-anisyl], the inhibition in vivo at 10 mg/kg in assay [5] (setting [6]) came out at 25%.

`CN(C)CCC(Oc1ccc(Cl)cc1)c1ccccc1` (centres unmarked) [p-chlorophenyl]: in assay [5] (setting [8]), the inhibition in vivo at 1 mg/kg stood at 29% and the inhibition in vivo at 3 mg/kg was found to be 37%. Besides, the inhibition in vivo at 0.3 mg/kg in assay [5] (Mus musculus, Table 4, secondary amines, .3 mg./kg., Pre-30 min., mice, read-out: Percent Antagonism Apomorphine) came to 32%. In assay [5] (setting [6]), the inhibition in vivo at 1 mg/kg turned out to be 7%, the inhibition in vivo at 3 mg/kg was 43% and the inhibition in vivo at 10 mg/kg is 85%.

Regarding `CN(C)CCC(Oc1ccc(F)cc1)c1ccccc1` (centres unmarked) [p-fluorophenyl], in assay [4] (Table 4, secondary amines), the inhibition in vivo at 1 mg/kg came to 39%, the inhibition in vivo at 3 mg/kg was determined as 32% and the inhibition in vivo at 0.3 mg/kg came to 7%. Besides, in assay [4] (setting [7]), the inhibition in vivo at 1 mg/kg was determined as 10%, the inhibition in vivo at 3 mg/kg came out at 24%, the inhibition in vivo at 10 mg/kg was found to be 49% and the inhibition in vivo at 0.3 mg/kg was determined as 14%. Also, in assay [5] (setting [6]), the inhibition in vivo at 1 mg/kg stood at 26%, the inhibition in vivo at 3 mg/kg amounted to 63% and the inhibition in vivo at 10 mg/kg came out at 116%.

As to `CN(C)CCC(Oc1ccc(C(F)(F)F)cc1)c1ccccc1` (centres unmarked) [p-trifluoromethylphenyl], in assay [5] (setting [6]), the inhibition in vivo at 10 mg/kg stood at 24%.

Consider `CN(C)CCC(Oc1ccc2ccccc2c1)c1ccccc1.O=C(O)C(=O)O` (stereo not drawn) [β-naphthyl, N,N-dimethyl 3-(β-naphthyloxy)-3-phenylpropylamine oxalate], for which the “Concentration that blocks 50% of amine uptake, Norepinephrine” value in assay [1] is on record as > 100 mcq./ml. The “Concentration that blocks 50% of amine uptake, Dopamine” value in assay [2] came to 100 mcq./ml. Also, the “Concentration that blocks 50% of amine uptake, Serotonin” value in assay [3] is on record as 1 mcq./ml.
